Experimental findings from patent US20200239530A1, “COMPOUNDS AND METHODS OF MODULATING PROTEIN DEGRADATION” (Vividion Therapeutics, Inc., priority 2017, published 2020) are described below.

Read-outs that look alike come from different tables or passages of the source.

The target of assay [1] is T1, Polycomb group RING finger protein 6 (PCGF6) (Homo sapiens, UniProt Q9BYE7).
T1 construct: Cells were resuspended in cold PBS on ice and sonicated with a probe sonicator to achieve lysis; endogenous in cells
T1 sequence (Q9BYE7 1-350): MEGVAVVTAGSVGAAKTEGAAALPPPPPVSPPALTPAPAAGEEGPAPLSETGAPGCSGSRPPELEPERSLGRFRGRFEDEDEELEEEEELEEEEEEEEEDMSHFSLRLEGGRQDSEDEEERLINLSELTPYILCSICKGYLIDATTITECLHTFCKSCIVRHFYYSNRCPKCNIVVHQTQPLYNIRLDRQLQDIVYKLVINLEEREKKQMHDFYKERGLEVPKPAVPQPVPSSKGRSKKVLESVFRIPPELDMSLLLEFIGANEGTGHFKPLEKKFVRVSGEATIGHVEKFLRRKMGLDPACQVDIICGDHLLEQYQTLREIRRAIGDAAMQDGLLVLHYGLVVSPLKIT
The experiment in a line: Cysteine liganding, probe competition. The assay is classed as binding. As for the experimental part: (§1) Cells were resuspended in cold PBS on ice and sonicated with a probe sonicator to achieve lysis. 200 μL of lysate containing 5 mg/ml proteome was treated with 2 μL of 100× compound stock in a 2-mL deep-well plate. The treated lysate was subsequently incubate at 25° C. for 1 hr with shaking at 600 rpm. The treated lysate was further incubated with 2 μL of 10 mM desthiobiotin iodoacetamide probe at 25° C. for 1 hr with shaking at 600 rpm. Next, the lysate was further treat with 20 μL of solution of PBS containing 11 mM MgSO4 and 2.5% Turbonuclease stock and incubated at 25° C. for 20 minutes with shaking at 600 rpm. 1.7 mL ice-cold acetone was added to each well and incubated at −20° C. for 2 hr, followed by max speed (4200 rpm) spin for 45 min. Acetone was then decanted and the plates were blotted to remove acetone. The plates were then dried in open air for 20 minutes. After drying, the plates were then covered with foil seal and stored at −80° C. overnight.
(§2) The next day, samples were re-suspended in 90 μL of solution of 9M urea, 50 mM ammonium bicarbonate and 10 mM DTT by incubating at 65C for 20 min with shaking at 1500 rpm. Next, samples were cooled to 37° C. and then 10 μL of 500 mM iodoacetamide solution (92.48 mg/ml) was added. The samples were then incubated at 37° C. for 30 min with shaking at 600 rpm.
(§3) ZEBA desalting plates were equilibrated 4 times using 250 μL of 2M urea, 50 mM ammonium bicarbonate solution followed by centrifugation at 1500 rpm for 2 minutes. After equilibration was complete, samples were applied to ZEBA desalting plate and spin at 1500 rpm for 2 min on top of 1 mL 96-well deep-well collection plate to buffer exchange samples. 4 μL of solution containing 25 mM CaCl2 and 0.25 mg/mL trypsin was added to the plate and the plate was then incubated at 37° C. for 2 hrs with shaking at 600 rpm. 300 μL of solution containing 5% high-capacity streptavidin agarose slurry in 25 mM Tris-HCl pH 7.5, 150 mM NaCl, and 0.1% NP-40 then added. The plate was incubated at 25° C. for 2 hrs with shaking at 600 rpm. Samples were transferred to 25 μm filter plate and spin at 1000 rpm for 2 min. Samples were then washed 3 times with 0.75 mL of wash buffer (25 mM Tris-HCl pH 7.5, 150 mM NaCl, and 0.1% NP-40) followed by washing 3 times with 0.75 mL PBS, and then 4 times with 0.75 mL water. After the washing step, samples were eluted into polypropylene 96-well plate by addition of 250 µL of 50% MeCN/water, 0.1% formic acid and allowed to gravity drip for 10 min, followed by centrifugation at 1000 rpm for 2 min. Speedvac was used to dry the plates at about 45° C. for […]. Then the plates were covered with foil seal and stored at −20° C.
(§4) Samples were resuspended by addition of 20 μl of 12.5% ACN, 0.1% formic acid solution, covered with foil seal, and incubated at 42° C. for 10 minutes with shaking at 600 rpm. Then add 30 μL of 0.1% formic acid solution was added and the plate was covered and incubated at 42° C. for 10 minutes with shaking at 600 rpm. Seal plate was then sealed with a 96-well silicon mat for analysis.

The target of assay [2] is T2, TRIM71 E3 ubiquitin-protein ligase TRIM71 (Homo sapiens, UniProt Q2Q1W2).
T2 construct: Cells were resuspended in cold PBS on ice and sonicated with a probe sonicator to achieve lysis; endogenous in cells
T2 sequence (Q2Q1W2 1-868): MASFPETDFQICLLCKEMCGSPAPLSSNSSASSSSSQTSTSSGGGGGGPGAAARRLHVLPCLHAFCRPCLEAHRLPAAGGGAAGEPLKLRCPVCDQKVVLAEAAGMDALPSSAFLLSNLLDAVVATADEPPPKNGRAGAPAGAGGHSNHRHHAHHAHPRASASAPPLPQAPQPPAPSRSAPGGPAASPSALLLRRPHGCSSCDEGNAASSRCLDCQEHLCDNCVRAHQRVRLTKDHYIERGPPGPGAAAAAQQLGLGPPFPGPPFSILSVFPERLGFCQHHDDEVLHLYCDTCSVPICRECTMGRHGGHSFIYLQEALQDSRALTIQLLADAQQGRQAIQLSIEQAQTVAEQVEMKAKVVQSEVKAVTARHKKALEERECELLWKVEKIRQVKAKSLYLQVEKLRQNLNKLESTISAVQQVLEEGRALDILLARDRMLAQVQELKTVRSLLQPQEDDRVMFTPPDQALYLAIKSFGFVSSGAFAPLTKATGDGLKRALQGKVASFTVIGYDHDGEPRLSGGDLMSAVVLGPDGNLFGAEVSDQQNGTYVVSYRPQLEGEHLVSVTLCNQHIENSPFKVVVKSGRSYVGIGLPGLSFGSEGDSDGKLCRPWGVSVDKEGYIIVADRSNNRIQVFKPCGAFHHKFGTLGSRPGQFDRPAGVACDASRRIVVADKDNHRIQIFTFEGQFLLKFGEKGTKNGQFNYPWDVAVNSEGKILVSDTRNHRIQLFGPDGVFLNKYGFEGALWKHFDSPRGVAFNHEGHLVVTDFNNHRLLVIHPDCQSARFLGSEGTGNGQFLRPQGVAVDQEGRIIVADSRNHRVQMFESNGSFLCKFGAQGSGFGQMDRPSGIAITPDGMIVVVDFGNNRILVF
The experiment in a line: Cysteine liganding, probe competition. The assay is classed as binding. As to the method:
as §1, §2, §3, §4

Regarding `COc1ccc2c(c1)CCCN2C(=O)CCl` [KB02], the inhibition at 500 µM in assay [1] (500 uM, read-out: KB02_500 uM_percent_inhibition) worked out at 37%. Also, the inhibition at 100 µM in assay [2] (100 uM, UniProt Q2Q1W2, read-out: KB02_100 uM_percent_inhibition) stood at 39%. Further, in assay [2] (TRIM71 Res# 636, uniprot Q2Q1W2), the Liganded result is reported as “YES”.

In the case of `C=CC(=O)N(c1ccccc1)c1ccc(Br)cc1` [KB05], the “KB05_500 uM_percent_inhibition” value in assay [1] (500 uM) was found to be 48%. The inhibition at 500 µM in assay [1] (500 uM, read-out: KB05_500 uM_percent_inhibition) is 33%. Further, the inhibition at 100 µM in assay [2] (100 uM, UniProt Q2Q1W2, read-out: KB05_100 uM_percent_inhibition) stood at 5%.

As to `O=C(CCl)Nc1cc(C(F)(F)F)cc(C(F)(F)F)c1` [KBO3], the “KB03_100 uM_percent_inhibition” value in assay [1] (100 uM) was 41%. The “KB03_100 uM_percent_inhibition” value in assay [2] (100 uM, UniProt Q2Q1W2) is on record as 17%. Besides, in assay [2] (uniprot Q2Q1W2), the “100 Max” value stood at 17.2, the 100 ave is recorded as 17.2, the “500 Max” value is recorded as 64.2 and the 500 ave came out at 64.2.
